# Patent US20240166602A1, “SUBSTITUTED DIARYL COMPOUND AS WELL AS PREPARATION METHOD AND APPLICATION THEREOF” (SHANDONG FIRST MEDICAL UNIV & SHANDONG ACADEMY OF MEDICAL …, priority 2021, published 2024)
# Entries after “also recorded” stand apart in the source; their conditions may differ.
# Legend:
# Assay type in all cases: cell-based
# [1] = system: human lung cancer (A549) cells; assay: MTT tumor cell growth inhibition, human lung cancer (A549); settings: Homo sapiens; A549, 48 h culture, MTT method; read-out: IC50 value of target compound against cancer cell proliferation, A549
# Procedure: (§1) Dissolve CHJ compound series with dimethyl sultbxide (DMSO, final concentration 0.4%), and use RPMI-1640 culture medium containing 15% fetal calf serum to prepare 1 mg/mL solution for future use. During drug administration in groups, use the culture medium to dilute it to the concentration needed.
# (§2) Cell lines: human lung cancer (A549), Inman ovarian cancer (SKOV3), human melanoma (A375) and human colon cancer (LOVO) cell lines, all purchased from the Cell Bank of the Chinese Academy of Sciences, DMEM containing 15% fetal bovine serum (High Glucose) culture medium, placed in a 37° C., 5% CO2 incubator.
# (§3) MTT is an oxidizing yellow dye with the chemical name of 3-(4,5-dimethyl-2-thiazolyl)-2,5-diphenyl-2-H-tetrazoliumbromide tetrazole bromide. The MMT method, also known as the MTT colorimetric method, can test the survival and growth of cells. The method is simple and easily accessible and often used to screet the substance with cytotoxic activity. The basic principle of testing, is that succinodehydrogenase can reduce exogenous MIT so that MTT is reduced to blueviolet crystal Formazan insoluble to water. The crystal deposits in cells. The succinodehydrogenase exists in the mitochondria of living cells, not in the dead cells. Therefore, the chromogenic reaction can only take place in living cells. Then, dissolve the blueviolet crystal Formazan contained in cells with dimethyl sulfoxide (DMSO), and measure its absorbancy with microplate reader so that the count of living cells is reflected indirectly. Within the scope of certain cell count, the amount of blueviolet crystal Formazan formed is positively correlated to the count of living cells.
# (§4) Human lung cancer (A549), human ovarian cancer (SKOV3), human melanoma (A375) and human colon cancer (LOVO) ceilsare all adherent. Based on the growth rate of tumor cells, wash the adherent tumor cells in the logarithmic phase and digest them in 0.25% EDTA pancreatic enzyme. Adjust the cell count to 1×10^5/mL and inoculate the cells in 96-pore plate, each pore containing 100 μL. Culture the cells in the 37° C. CO2 incubator, and administer the drug 24 h later. Add pharmaceutical (CJH compound series) of different concentrations to the administration group. Set up 5 dosage groups for each pharmaceutical, respectively 100, 10, 1, 0.1, 0.01 μmol/L. Set up three complex pores for each concentration. Set up blank control, DMSO (0.8%) solvent control and cis-platinum positive control. After 48 h of culture in the 37 ° C. incubator containing 5% CO2, measure the OD value through MTT method and calculate the cell inhibition ratio.
# (§5) After 48 h of culture of human lung cancer (A549), human ovarian cancer (SKOV3). human melanoma (A375) and human colon cancer (LOVO) cells, stop it and add 10 μL 0.5% MTT solution to each pore. Place it in the CO2 incubator for 4 h. Remove the liquid from each pore, respectively add 0.2 mL DMSO solution, and oscillate it adequately on the table concentrator under low frequency so that the blueviolet crystal Formazan is dissolved adequately. Place it in the microplate reader and record the OD value at the wavelength of […]. Calculate the average OD value of three parallel pores of different concentrations, and calculate the cell inhibition ratio and IC50 of each tested pharmaceutical under different concentrations based on the average.
# (§6) Inhibition ratio (%)=[1-tested sample OD/negative control group OD]×100%.
# [2] = system: human colon cancer (LOVO) cells; assay: MTT tumor cell growth inhibition, human colon cancer (LOVO); settings: Homo sapiens, 48 h culture, MTT method, read-out: IC50 value of target compound against cancer cell proliferation, LOVO
# Procedure: as §1, §2, §3, §4, §5, §6
# [3] = system: human melanoma (A375) cells; assay: MTT tumor cell growth inhibition, human melanoma (A375); settings: Homo sapiens, A-375; A375, 48 h culture, MTT method; read-out: IC50 value of target compound against cancer cell proliferation, A375
# Procedure: as §1, §2, §3, §4, §5, §6
# [4] = system: human lung cancer (A549), human ovarian cancer (SKOV3), human melanoma (A375) and human colon cancer (LOVO) cells; assay: MTT tumor cell growth inhibition, overall comment on the four cell lines; settings: summary of the IC50 data over A549, SKOV3, A375, LOVO
# Procedure: as §1, §2, §3
# as §4, with “After 48 h of culture in the 37 ° C. incubator containing 5% CO2, measure the OD value through MTT method and calculate the cell inhibition ratio.” left out
# After 48 h of culture of human lung cancer (A549), human ovarian cancer (SKOV3). human melanoma (A375) and human colon cancer (LOVO) cells, stop it and add 10 μL 0.5% MTT solution to each pore. […] Place it in the microplate reader and record the OD value at the wavelength of […]. […]
# [5] = system: human ovarian cancer (SKOV3) cells; assay: MTT tumor cell growth inhibition, human ovarian cancer (SKOV3); settings: Homo sapiens, SK-OV-3; SKOV3, 48 h culture, MTT method; read-out: IC50 value of target compound against cancer cell proliferation, SKOV3
# Procedure: as §1, §2, §3, §4, §5, §6
SMILES,IC50 [1] [µM],IC50 [2] [µM],IC50 [3] [µM],"anti-cancer activity, in words [4]",IC50 [5] [µM]
"CCCc1ccc(OCC(O)CN(C)Cc2ccc(OCCN3CCC(C)CC3)c(OC)c2)c(OC)c1 (stereo not shown) [CHJ03011, 1-((3-methoxy-4-(2-(4-methylpiperidin-1-yl)ethoxy)benzyl)(methyl)amino)-3-(2-methoxy-4-propylphenoxy)propan-2-ol]",10.56 ± 0.02,15.2 ± 1.78,1.82 ± 1.23,still effective against cancer,21.2 ± 1.08
"COc1cc(CN(C)CC(O)COc2c(Br)cc(Br)cc2Br)ccc1OCCN1CCC(C)CC1 (stereo not shown) [CHJ04022, 1-((3-methoxy-4-(2-(4-methylpiperidin-1-yl)ethoxy)benzyl)(methy)amino)-3-(2,4,6-tribromnophenoxy)propan-2-ol]",1.88 ± 0.19,0.69 ± 0.03,0.05 ± 0.01,"the most active, as active as the cis-platinum in the control group",1.03 ± 0.24
"COc1cc(CN(C)CC(O)COc2ccc(NC(C)=O)cc2)ccc1OCCN1CCC(C)CC1 (stereo not shown) [CHJ04061, N-(4-2-hydroxy 3-((3-methoxy-4-(2-(4-methylpiperidin-1-yl)ethoxy)benzyl)(methyl)amino)propoxy)phenypacetamide]",333.1 ± 2.7,97.1 ± 4.21,–,lowered prominently,143 ± 3.1
"COc1cc(CN(C)CC(O)COc2c(Br)cc(Br)cc2Br)ccc1OCCN1CCCC1 (stereo not shown) [CHJ04068, 1-((3-methoxy-4-(2-(pyrrolidin-1-yl)ethoxy)henzyl)(methyl)amino)-3-(2,4,6-tribromophenoxy)propan-2-ol]",5.46 ± 1.76,0.52 ± 0.4,1.54 ± 1.34,"lowered prominently; also recorded: the most active, as active as the cis-platinum in the control group",4.21 ± 1.23
